Earlier results on 1 compound are cited in US6107271A, “Neuroactive peptides” (NYXIS Neuro Therapies, Inc., priority 1998, dated 2000).

This data set deals with rabbits. The note with it: peripheral injections; cited from earlier work.

Take `N[C@@H]1CONC1=O` [D-cycloserine]: the “learning rates in trace eyeblink conditioning” value is reported as “doubled”.
